The record followed here is US20240024488A1, “COMPOUNDS AND USES THEREOF” (Foghorn Therapeutics Inc., priority 2020, published 2024).

Each structure is given as a SMILES string.

One experiment deals with T1, HiBit-BRM fusion protein (Homo sapiens, UniProt P51531).
T1 construct: expressed in transfected cells
Briefly: HiBiT-BRM cell-based degradation assay (Nano-Glo HiBiT Lytic Detection, 24 h). As to conditions: HeLa cell line expressing HiBiT-BRM; for DC50: read-out: BRM HiBit Degradation IC50. In outline: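 Luminescence from reconstituted NanoBiT luciferase in lysed HeLa HiBiT-BRM cells served as the measure of remaining BRM after 24 h treatment. Compounds were tested from 30 μM final downward in 3-fold steps. DMSO and 2 μM of a standard BRM/BRG1 degrader defined the scale limits.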
(With HiBiT, luminescence reflects the tagged protein that the partner subunit can reach.)

Experiment [1] deals with T2, HiBit-BRG1 fusion protein (Homo sapiens, UniProt P51532).
T2 construct: expressed in transfected cells
T2 sequence (P51532 whole entry, the tested form may be a part): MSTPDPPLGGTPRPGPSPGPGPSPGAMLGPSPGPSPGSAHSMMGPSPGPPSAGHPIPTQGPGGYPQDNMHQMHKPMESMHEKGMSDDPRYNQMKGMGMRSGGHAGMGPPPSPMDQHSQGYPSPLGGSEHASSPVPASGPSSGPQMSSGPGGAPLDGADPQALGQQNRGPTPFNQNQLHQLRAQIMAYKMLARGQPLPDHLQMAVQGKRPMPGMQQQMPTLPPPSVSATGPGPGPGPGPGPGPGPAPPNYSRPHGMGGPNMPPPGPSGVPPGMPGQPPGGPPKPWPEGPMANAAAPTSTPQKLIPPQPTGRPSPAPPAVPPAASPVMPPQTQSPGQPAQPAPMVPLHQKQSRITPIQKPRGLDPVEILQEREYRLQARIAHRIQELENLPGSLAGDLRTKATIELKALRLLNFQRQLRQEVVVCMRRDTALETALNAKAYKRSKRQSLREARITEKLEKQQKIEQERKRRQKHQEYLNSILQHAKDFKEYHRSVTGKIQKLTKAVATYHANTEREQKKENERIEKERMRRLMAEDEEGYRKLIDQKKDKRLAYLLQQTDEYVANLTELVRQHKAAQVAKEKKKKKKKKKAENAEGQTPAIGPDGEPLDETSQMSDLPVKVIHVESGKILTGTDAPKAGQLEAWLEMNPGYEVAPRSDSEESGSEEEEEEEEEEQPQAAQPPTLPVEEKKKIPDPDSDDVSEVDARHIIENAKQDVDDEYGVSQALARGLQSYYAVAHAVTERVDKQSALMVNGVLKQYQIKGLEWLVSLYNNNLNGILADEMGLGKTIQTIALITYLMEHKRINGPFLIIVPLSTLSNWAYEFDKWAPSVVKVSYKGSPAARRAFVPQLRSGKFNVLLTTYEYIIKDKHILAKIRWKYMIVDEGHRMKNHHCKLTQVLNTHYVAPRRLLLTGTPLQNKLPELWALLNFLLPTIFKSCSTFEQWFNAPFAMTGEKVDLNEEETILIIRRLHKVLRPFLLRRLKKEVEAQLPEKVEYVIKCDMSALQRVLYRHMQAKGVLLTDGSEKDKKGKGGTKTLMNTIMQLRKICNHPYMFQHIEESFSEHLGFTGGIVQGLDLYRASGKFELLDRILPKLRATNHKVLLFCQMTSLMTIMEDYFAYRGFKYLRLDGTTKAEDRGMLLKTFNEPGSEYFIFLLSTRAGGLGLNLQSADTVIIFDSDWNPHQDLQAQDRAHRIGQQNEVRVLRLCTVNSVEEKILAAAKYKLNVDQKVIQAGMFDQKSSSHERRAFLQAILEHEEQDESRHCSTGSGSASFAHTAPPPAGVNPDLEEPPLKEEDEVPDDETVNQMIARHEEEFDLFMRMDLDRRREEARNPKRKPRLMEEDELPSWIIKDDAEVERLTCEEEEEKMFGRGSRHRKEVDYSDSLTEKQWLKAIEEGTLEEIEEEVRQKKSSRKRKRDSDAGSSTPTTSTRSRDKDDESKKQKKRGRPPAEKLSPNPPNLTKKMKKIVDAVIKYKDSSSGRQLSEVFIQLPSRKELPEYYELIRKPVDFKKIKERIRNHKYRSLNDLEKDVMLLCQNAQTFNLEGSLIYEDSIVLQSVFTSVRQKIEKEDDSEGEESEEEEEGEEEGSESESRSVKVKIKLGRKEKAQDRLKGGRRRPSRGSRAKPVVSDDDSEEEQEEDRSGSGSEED
Briefly: HiBiT-BRG1 cell-based degradation assay (Nano-Glo HiBiT Lytic Detection, 24 h). As to conditions: HeLa cell line expressing HiBit-BRG1 and LgBit; for Dmax: read-out: BRG1 HiBit Degradation Maximum (%); for DC50: read-out: BRMG1 HiBit Degradation IC50. In short, it runs like this: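 Luminescence from Nano-Glo HiBiT lytic detection, read after 24 h compound exposure, scored degradation in a stable HeLa HiBiT-BRG1/LgBit line seeded at 5000 cells/well. DMSO wells defined 0% and 2 μM known BRM/BRG1 degrader wells defined full degradation.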

T1 sequence (P51531 whole entry, the tested form may be a part): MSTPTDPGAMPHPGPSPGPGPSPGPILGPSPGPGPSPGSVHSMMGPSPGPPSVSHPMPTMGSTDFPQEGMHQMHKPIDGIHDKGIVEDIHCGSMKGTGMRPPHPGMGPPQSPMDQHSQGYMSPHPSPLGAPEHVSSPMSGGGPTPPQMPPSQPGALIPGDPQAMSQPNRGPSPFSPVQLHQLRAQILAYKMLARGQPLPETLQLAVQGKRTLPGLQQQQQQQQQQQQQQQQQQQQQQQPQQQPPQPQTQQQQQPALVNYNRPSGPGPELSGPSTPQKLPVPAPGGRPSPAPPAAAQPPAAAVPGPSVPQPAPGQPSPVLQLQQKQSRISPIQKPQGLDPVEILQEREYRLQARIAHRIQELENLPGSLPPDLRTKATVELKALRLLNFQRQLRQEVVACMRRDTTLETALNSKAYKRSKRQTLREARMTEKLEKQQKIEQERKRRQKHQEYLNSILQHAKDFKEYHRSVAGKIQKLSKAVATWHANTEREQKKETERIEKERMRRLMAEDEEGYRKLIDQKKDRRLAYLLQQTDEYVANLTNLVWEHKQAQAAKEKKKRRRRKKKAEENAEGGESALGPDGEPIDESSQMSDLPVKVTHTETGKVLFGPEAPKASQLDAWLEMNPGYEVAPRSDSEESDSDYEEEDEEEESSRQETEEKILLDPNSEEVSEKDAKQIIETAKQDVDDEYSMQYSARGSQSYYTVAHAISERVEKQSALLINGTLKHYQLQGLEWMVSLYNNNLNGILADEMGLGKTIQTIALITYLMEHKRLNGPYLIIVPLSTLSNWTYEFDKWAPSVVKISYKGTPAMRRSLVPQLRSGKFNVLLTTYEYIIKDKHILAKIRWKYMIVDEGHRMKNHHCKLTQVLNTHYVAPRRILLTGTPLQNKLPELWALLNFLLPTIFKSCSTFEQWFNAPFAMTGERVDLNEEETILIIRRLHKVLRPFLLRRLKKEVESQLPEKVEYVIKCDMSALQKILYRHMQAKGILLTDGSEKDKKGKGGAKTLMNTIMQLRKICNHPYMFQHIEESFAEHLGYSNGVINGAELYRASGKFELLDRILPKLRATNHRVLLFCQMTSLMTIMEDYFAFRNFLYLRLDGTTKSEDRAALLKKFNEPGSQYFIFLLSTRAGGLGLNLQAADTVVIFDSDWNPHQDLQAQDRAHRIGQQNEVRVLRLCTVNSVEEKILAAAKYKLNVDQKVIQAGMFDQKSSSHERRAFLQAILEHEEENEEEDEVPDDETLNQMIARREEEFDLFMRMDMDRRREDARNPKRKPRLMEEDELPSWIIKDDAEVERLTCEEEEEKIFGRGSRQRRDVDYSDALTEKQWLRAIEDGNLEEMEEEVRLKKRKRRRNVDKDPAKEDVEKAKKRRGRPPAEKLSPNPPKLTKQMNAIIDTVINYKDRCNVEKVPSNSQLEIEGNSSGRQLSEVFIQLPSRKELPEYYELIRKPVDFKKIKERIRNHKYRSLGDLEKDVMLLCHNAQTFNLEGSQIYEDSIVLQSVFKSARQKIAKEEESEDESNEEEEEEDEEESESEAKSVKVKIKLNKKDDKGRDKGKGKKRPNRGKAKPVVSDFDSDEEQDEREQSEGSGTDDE

On to `Cc1ncsc1-c1ccc(C(C)NC(=O)C2CC(O)CN2C(=O)C(c2cc(OCCN3CC4C(C3)C4c3c(C)[nH]c4nnc(-c5ccccc5O)cc34)no2)C(C)C)cc1` [Compound 255, (2S,4R)-4-hydroxy-1-((R)-2-(3-(2-((1R,5S,6S)-6-(3-(2-hydroxyphenyl)-6-methyl-7H-pyrrolo[2,3-c]pyridazin-5-yl)-3-azabicyclo[3.1.0]hexan-3-yl)ethoxy)isoxazol-5-yl)-3-methylbutanoyl)-N-((S)-1-(4-(4-methylthiazol-5-yl)phenyl)ethyl)pyrrolidine-2-carboxamide], for which, on HiBit-BRM fusion protein, the “BRM HiBit Degradation Maximum (%)” value is reported as “A (“A” indicates maximum degradation ≥ 75%)” and the DC50 is greater than 10 nM. Moreover, in experiment [1], the Dmax is less than 50% and the DC50 is greater than 1000 nM.

Consider `Cc1ncsc1-c1ccc([C@H](C)NC(=O)[C@@H]2C[C@@H](O)CN2C(=O)[C@@H](c2cc(OCC(=O)N(C)[C@H]3CCc4[nH]c5nnc(-c6ccccc6O)cc5c4C3)no2)C(C)C)cc1` [Compound 106, (2S,4R)-4-hydroxy-1-((R)-2-(3-(2-(((S)-3-(2-hydroxyphenyl)-6,7,8,9-tetrahydro-5H-pyridazino[3,4-b]indol-6-yl)(methyl)amino)-2-oxoethoxy)isoxazol-5-yl)-3-methylbutanoyl)-N-((S)-1-(4-(4-methylthiazol-5-yl)phenyl)ethyl)pyrrolidine-2-carboxamide], for which, at HiBit-BRM fusion protein, the “BRM HiBit Degradation Maximum (%)” value is given as “A (“A” indicates maximum degradation ≥ 75%)” and the DC50 was greater than 10 nM. Moreover, in experiment [1], the Dmax is less than 50%.

For the molecule `Cc1ncsc1-c1ccc([C@H](C)NC(=O)[C@@H]2C[C@@H](O)CN2C(=O)[C@@H](c2cc(OCCN3CC4(Cc5cc(-c6ccccc6O)nnc5N4)C3)no2)C(C)C)cc1` (racemic) [Compound 186, (2S,4R)-4-hydroxy-1-((R)-2-(3-(2-(3′-(2-hydroxyphenyl)-5′,7′-dihydrospiro[azetidine-3,6′-pyrrolo[2,3-c]pyridazin]-1-yl)ethoxy)isoxazol-5-yl)-3-methylbutanoyl)-N-((S)-1-(4-(4-methylthiazol-5-yl)phenyl)ethyl)pyrrolidine-2-carboxamide], at HiBit-BRM fusion protein, the “BRM HiBit Degradation Maximum (%)” value was “A (“A” indicates maximum degradation ≥ 75%)” and the DC50 was greater than 10 nM. In addition, in experiment [1], the Dmax was greater than 75% and the DC50 is greater than 100 nM.

Turning to `Cc1ncsc1-c1ccc(CNC(=O)[C@@H]2C[C@@H](O)CN2C(=O)[C@@H](NC(=O)CCCCCNCCC(=O)N2CC(c3cc4cc(-c5ccccc5O)nnc4[nH]3)C2)C(C)(C)C)cc1` (racemic) [Compound 55, (2S,4R)-4-hydroxy-1-((S)-2-(6-((3-(3-(3-(2-hydroxyphenyl)-7H-pyrrolo[2,3-c]pyridazin-6-yl)azetidin-1-yl)-3-oxopropyl)amino)hexanamido)-3,3-dimethylbutanoyl)-N-(4-(4-methylthiazol-5-yl)benzyl)pyrrolidine-2-carboxamide], on HiBit-BRM fusion protein, the “BRM HiBit Degradation Maximum (%)” value is listed as “C (“C” indicates maximum degradation < 50%)”. Also, in experiment [1], the Dmax is less than 50%.

`Cc1ncsc1-c1ccc([C@H](C)NC(=O)[C@@H]2C[C@@H](O)CN2C(=O)[C@@H](c2cc(OCCNCCC(=O)N3CC(c4cc5cc(-c6ccccc6O)nnc5[nH]4)C3)no2)C(C)C)cc1` (racemic) [Compound 65, (2S,4R)-4-hydroxy-1-((R)-2-(3-(2-((3-(3-(3-(2-hydroxyphenyl)-7H-pyrrolo[2,3-c]pyridazin-6-yl)azetidin-1-yl)-3-oxopropyl)amino)ethoxy)isoxazol-5-yl)-3-methylbutanoyl)-N-((S)-1-(4-(4-methylthiazol-5-yl)phenyl)ethyl)pyrrolidine-2-carboxamide]: on HiBit-BRM fusion protein, the “BRM HiBit Degradation Maximum (%)” value is on record as “B (“B” indicates maximum degradation ≥ 50%)” and the DC50 is greater than 1000 nM. Besides, in experiment [1], the Dmax was less than 50%.

For the molecule `Cc1ncsc1-c1ccc([C@H](C)NC(=O)[C@@H]2C[C@@H](O)CN2C(=O)[C@@H](c2cc(OCCN3CCCC(c4cc5cc(-c6ccccc6O)nnc5[nH]4)C3)no2)C(C)C)cc1` (mixture of isomers) [Compound 286, (2S,4R)-4-hydroxy-1-((2R)-2-(3-(2-(3-(3-(2-hydroxyphenyl)-7H-pyrrolo[2,3-c]pyridazin-6-yl)piperidin-1-yl)ethoxy)isoxazol-5-yl)-3-methylbutanoyl)-N-((S)-1-(4-(4-methylthiazol-5-yl)phenyl)ethyl)pyrrolidine-2-carboxamide], at HiBit-BRM fusion protein, the “BRM HiBit Degradation Maximum (%)” value is reported as “A (“A” indicates maximum degradation ≥ 75%)” and the DC50 was greater than 10 nM. The Dmax in experiment [1] was less than 50%.

Turning to `O=C1CCC(N2C(=O)c3ccc(OCCN4CCC(C(=O)N5CC(c6cc7cc(-c8ccccc8O)nnc7[nH]6)C5)CC4)cc3C2=O)C(=O)N1` (centres unmarked) [Compound 25, 2-(2,6-dioxopiperidin-3-yl)-5-(2-(4-(3-(3-(2-hydroxyphenyl)-7H-pyrrolo[2,3-c]pyridazin-6-yl)azetidine-1-carbonyl)piperidin-1-yl)ethoxy)isoindoline-1,3-dione], on HiBit-BRM fusion protein, the “BRM HiBit Degradation Maximum (%)” value is “C (“C” indicates maximum degradation < 50%)”. In addition, the Dmax in experiment [1] was less than 50%.

As for `Cc1ncsc1-c1ccc([C@H](C)NC(=O)[C@@H]2C[C@@H](O)CN2C(=O)[C@@H](c2cc(N3CCC(N4CC5(Cc6cc(-c7ccccc7O)nnc6N5)C4)CC3)no2)C(C)C)cc1` (racemic) [Compound 98, (2S,4R)-4-hydroxy-1-((R)-2-(3-(4-(3′-(2-hydroxyphenyl)-5′,7′-dihydrospiro[azetidine-3,6′-pyrrolo[2,3-c]pyridazin]-1-yl)piperidin-1-yl)isoxazol-5-yl)-3-methylbutanoyl)-N-((S)-1-(4-(4-methylthiazol-5-yl)phenyl)ethyl)pyrrolidine-2-carboxamide], at HiBit-BRM fusion protein, the “BRM HiBit Degradation Maximum (%)” value was “A (“A” indicates maximum degradation ≥ 75%)” and the DC50 was greater than 10 nM. Besides, in experiment [1], the Dmax was less than 50%.

Turning to `Cc1ncsc1-c1ccc([C@H](C)NC(=O)[C@@H]2C[C@@H](O)CN2C(=O)[C@H](c2cc(OCCCN3C[C@@H]4[C@H](C3)[C@H]4c3cc4cc(-c5ccccc5O)nnc4[nH]3)no2)C(C)C)cc1` (racemic) [Compound 215, (2S,4R)-4-hydroxy-1-((S)-2-(3-(3-((1R,5S,6S)-6-(3-(2-hydroxyphenyl)-7H-pyrrolo[2,3-c]pyridazin-6-yl)-3-azabicyclo[3.1.0]hexan-3-yl)propoxy)isoxazol-5-yl)-3-methylbutanoyl)-N-((S)-1-(4-(4-methylthiazol-5-yl)phenyl)ethyl)pyrrolidine-2-carboxamide], the “BRM HiBit Degradation Maximum (%)” value on HiBit-BRM fusion protein is reported as “C (“C” indicates maximum degradation < 50%)”. In addition, the Dmax in experiment [1] was less than 50%.

Take `Cc1ncsc1-c1ccc([C@H](C)NC(=O)[C@@H]2C[C@@H](O)CN2C(=O)[C@@H](c2cc(OCCN3CC(CCc4cc5cc(-c6ccccc6O)nnc5[nH]4)C3)no2)C(C)C)cc1` (racemic) [Compound 244, (2S,4R)-4-hydroxy-1-((R)-2-(3-(2-(3-(2-(3-(2-hydroxyphenyl)-7H-pyrrolo[2,3-c]pyridazin-6-yl)ethyl)azetidin-1-yl)ethoxy)isoxazol-5-yl)-3-methylbutanoyl)-N-((S)-1-(4-(4-methylthiazol-5-yl)phenyl)ethyl)pyrrolidine-2-carboxamide]: on HiBit-BRM fusion protein, the “BRM HiBit Degradation Maximum (%)” value is listed as “A (“A” indicates maximum degradation ≥ 75%)” and the DC50 was greater than 100 nM. Besides, the Dmax in experiment [1] was greater than 50%.
